In one experiment the test system is COVID-19 patients. Conditions: treatment of COVID-19; cited from earlier work.
Experiment [1] concerns platelets from COVID-19 patients and healthy donors (hirudin whole blood). Kind of experiment: Multiple Electrode Aggregometry (Multiplate analyzer). Type of experiment: cell-based, human. Conditions: 10 µM ivacaftor 15 min, ADP, TRAP6 or PAF, significance only for individual agonist-platelet combinations. The protocol: Multiple Electrode Aggregometry: Whole blood impedance measurement using Multiple Electrode Aggregometry (MEA) was performed on the Multiplate® analyzer by Roche (Basel, Switzerland)). Hirudin whole blood samples were treated with either vehicle (DMSO), 10 µM ivacaftor or 5 μM forskolin for 15 min at 37° C.

The test system of experiment [2] is platelets isolated from blood of healthy donors. Description: Flow cytometry of surface expression of activation markers CD62p and CD63 on platelets. The format is cell-based, human. Conditions: platelets pre-treated 24 h with 10 µM ivacaftor or 5 µM forskolin prior to 50 µM ADP, 50 µM TRAP6 or 5 µM PAF. The protocol:
Flow Cytometry: Blood samples were collected and stained as previously described3. In brief, blood was directly stained in dilution buffer (NaCl 137 mM, KCl 2.7 mM, MgCl2 1 mM, 4-(2-hydroxyethyl)-1-piperazineethanesulfonic acid (HEPES) 20 mM, glucose 5.6 mM, bovine serum albumin 1 g/l, pH 7.4.) containing mouse anti-human anti-CD42b (GPlb) Phycoerythrin (PE, clone HIP1), anti-CD62p (P-selectin) Phycoerythrin-Cyanine 7 (PE/Cy7, clone AK4), anti-CD63 (GP53) and Brilliant Violet 421 (clone H5C6), all from BioLegend (San Diego, CA, USA), before cells were fixed with 2 mL of 0.2% PFA in PBS. In order to analyze isolated platelets, total citrate blood was centrifuged at 150 g for 15 min to separate platelet rich plasma (PRP) from blood cells. PRP was collected and centrifuged again at 1000 g for 15 min. Platelets were subsequently resuspended in 10% CPDA buffer in PBS (Sigma-Aldrich (St. Louis, MO, USA)) and incubated for 24 h in the presence of either vehicle (DMSO, Sigma-Aldrich (St. Louis, MO, USA)), 10 µM ivacaftor (Cayman Chemicals, Ann Arbor, MI, USA)) or 5 µM forskolin (Fisher Scientific (Pittsburgh, PA, USA)) before staining was applied as described above. […] All measurements were analyzed with FlowJo (version 8, Tree Star, Inc., Ashland, OR, USA).
On the technique in general: Flow cytometry measures light scatter and fluorescence of single cells or particles in a stream.

The subject of experiment [3] is platelets in whole blood of COVID-19 patients and healthy donors. Description: Vascular Injury Flow Assay (platelet adhesion on collagen IV). Type of experiment: cell-based, human. The protocol:
Vascular Injury Flow Assay: Citrated blood was stained with anti-CD42b ((GPlb) Allophycocyanin (APC, clone REA 185, Miltenyi Biotec, Bergisch Gladbach, Germany)) and treated with either vehicle (DMSO), 10 μM ivacaftor or 5 µM forskolin for 15 min at 37° C. before the microfluidic flow assay was performed as previously described2. In brief, pretreated whole blood was diluted 1:4 with modified Tyrode's Buffer (134 mM NaCl, 12 mM NaHCO3, 2.90 mM KCl, 0.34 mM Na2HPO4, 3 mM MgCl2, 2.1 mM CaCl2), 20 mM HEPES, 5 mM Glucose, 1 g/l BSA, adjusted to a pH of 7.4.) immediately before perfusion with a flow rate of 20 mL/h for 5 min through collagen IV coated microchannel flow chambers (6 Channel μ-Slide VI 0.4, Ibidi, Martinsried, Germany). After perfusion, cells were fixed with 4% PFA for 30 min and washed thoroughly with PBS. Five randomly selected regions of interest (ROI) for each experimental condition were imaged with an Invitrogen™ EVOS™ fluorescent microscope and quantification of the total CD42b+ covered area was carried out with ImageJ (Version […] by the US National Institutes of Health and the LOCI, University of Wisconsin).

The subject of experiment [4] is platelets of healthy donors or severe COVID-19 patients. Kind of experiment: Analysis of Ca2+ transients (Indo-1 AM, FACS). The note with it: 10 µM ivacaftor pretreatment; ADP, TRAP6 or PAF; healthy donors and severe COVID-19; except TRAP6 stimulated healthy platelets. Type of experiment: cell-based, human. Here is the method: Analysis of Ca2+ transients: Platelet rich plasma (PRP) was stained with anti-CD42b, and loaded with Indo-1 AM (Invitrogen, Waltham, MA, USA)) for 30 min at 37° C. together in the presence of either vehicle (DMSO, 10 µM ivacaftor or 5 µM forskolin) under mild agitation. Stained PRP was diluted in Tyrode's Buffer (134 mM NaCl, 12 mM NaHCO3, 2.90 mM KCl, 0.34 mM Na2HPO4, 3 mM MgCl2, 2 mM CaCI2, 20 mM HEPES, 5 mM Glucose, pH 7.4.) complemented with heparin and […] before the fluorescence ratio of Ca2+-bound Indo-1 (405 nm) to Ca2+-unbound Indo-1 (530 nm) of CD42b+ platelets was monitored on a FACSymphony™ A5 (BD Biosciences, Franklin Lakes, NJ, USA) equipped with a ultraviolet (355 nm), violet (405 nm), blue (488 nm), yellow (561 nm), and red (637 nm) solid-state laser. After basal Ca2+ concentrations were monitored for 30 s, platelets were stimulated with either 5 μM PAF (Tocris Bioscience (Bristol, England, GB)), 50 μM ADP (Sigma-Aldrich, St. Louis, MO, USA) or 50 μM TRAP-6 (purchased from Cayman Chemicals (Ann Arbor, MI, USA)) before changes in intracellular Ca2+ concentration ([Ca2+] i) were monitored for additional 2 min. Results are expressed in arbitrary units as areaunder the curve (AUC).

Structures are written as SMILES. “Also recorded” adds a separate entry of the source.

Turning to `COc1ccc(-n2nc(C(N)=O)c3c2C(=O)N(c2ccc(N4CCCCC4=O)cc2)CC3)cc1` [apixaban], the “reduction in thromboembolic events” value in the experiment with COVID-19 patients was “failed to yield a significant reduction”.

With `CC(=O)Oc1ccccc1C(=O)O` [aspirin], the “reduction in thromboembolic events” value in the experiment with COVID-19 patients was “failed to yield a significant reduction; also recorded: failed to show a significant reduction”.

Regarding `CC(C)(C)c1cc(C(C)(C)C)c(NC(=O)c2c[nH]c3ccccc3c2=O)cc1O` [ivacaftor, N-(5-hydroxy-15 2,4-ditert-butyl-phenyl)-4-oxo-1 H-quinoline-3-carboxamide], the figures for the “agonist-induced aggregation of platelets (AUC)” value in experiment [1] and in experiment [1] (listed as Ivacaftor) were “reduces; also recorded: general trend to reduce; also recorded: attenuates” and “significantly attenuates”, respectively. Besides, the “agonist-induced upregulation of CD62p and CD63 (platelet activation)” value in experiment [2] is reported as “prevented; also recorded: attenuates; also recorded: normalized”. Further, the “agonist-induced platelet adhesion (CD42b+ total area)” value in experiment [3] (10 μM ivacaftor 15 min, ADP, TRAP-6 or PAF, significance for most agonist-platelet combinations) is “reduces; also recorded: general trend to reduce; also recorded: attenuates”. The “adhesion of both unstimulated and stimulated platelets” value in experiment [3] (whole blood of severe COVID-19 patients) is “reduced”. Further, the “agonist-induced [Ca2+]i increase (AUC)” value in experiment [4] is “attenuates; also recorded: significant reduction; also recorded: significantly attenuated”.

The record behind these values is US20250177371A1, “CFTR MODULATORS FOR THE TREATMENT OF VASCULAR DISEASE” (priority 2022, published 2025).
